Measurements as given in ChEMBL document CHEMBL2401614, “Synthesis of artemisinin dimers using the Ugi reaction and their in vitro efficacy on breast cancer cells” (Bioorg Med Chem Lett, 2013).

How the values were obtained:
MCF-10A [1] = experiment: Cytotoxicity against human MCF10A cells after 48 hrs by MTT assay; assay type: cell-based
MCF-10A [2] = experiment: Selectivity index, ratio of IC50 for human MCF10A cells to IC50 for human MDA-MB-231 cells; assay type: functional
MDA-MB-231 = experiment: Cytotoxicity against human MDA-MB-231 cells after 48 hrs by MTT assay; assay type: functional, cell-based; details: MDA-MB-231, 48 h
BT-474 [3] = experiment: Cytotoxicity against human BT474 cells after 48 hrs by MTT assay; assay type: functional, cell-based; details: BT-474, 48 h
MCF-10A [4] = experiment: Selectivity index, ratio of IC50 for human MCF10A cells to IC50 for human BT474 cells; assay type: functional
[5] = Cytotoxicity against human NCI60 cells relative to artesunate; assay type: functional
BT-474 [6] = experiment: Ratio of artemisinin dimer succinate IC50 to compound IC50 for human BT474 cells; assay type: functional

Row | Structure (SMILES) | IC50 (MCF-10A [1]) [µM] | Ratio IC50 (MCF-10A [2]) | IC50 (MDA-MB-231) [µM] | IC50 (BT-474 [3]) [µM] | Ratio IC50 (MCF-10A [4]) | fold change (FC) [5] | Ratio IC50 (BT-474 [6])
1 | C[C@H]1[C@@H](CC(COC(=O)CCC(=O)O)C[C@H]2O[C@@H]3O[C@@]4(C)CC[C@H]5[C@H](C)CC[C@@H]([C@H]2C)[C@@]35OO4)O[C@@H]2O[C@@]3(C)CC[C@H]4[C@H](C)CC[C@@H]1[C@@]24OO3 (stereo not given in full) | 21 | 88 | 0.24 | 0.1 | 210 | <=500 | –
2 | C[C@H]1[C@@H](CCCN(c2c(F)c(F)cc(F)c2F)C(CC[C@H]2O[C@@H]3O[C@@]4(C)CC[C@H]5[C@H](C)CC[C@@H]([C@H]2C)[C@@]35OO4)C(=O)NCC(=O)O)O[C@@H]2O[C@@]3(C)CC[C@H]4[C@H](C)CC[C@@H]1[C@@]24OO3 (stereo not given in full) | 98 | 43 | 2.3 | 0.012 | 8200 | – | 8
3 | COC(=O)CNC(=O)C(CC[C@H]1O[C@@H]2O[C@@]3(C)CC[C@H]4[C@H](C)CC[C@@H]([C@H]1C)[C@@]24OO3)N(C(=O)c1ccccc1)C(C)C (stereo not given in full) | > 100 | – | > 100 | > 100 | – | – | –
4 | COC(=O)CNC(=O)C(CC[C@H]1O[C@@H]2O[C@@]3(C)CC[C@H]4[C@H](C)CC[C@@H]([C@H]1C)[C@@]24OO3)N(CCC[C@H]1O[C@@H]2O[C@@]3(C)CC[C@H]4[C@H](C)CC[C@@H]([C@H]1C)[C@@]24OO3)C(=O)C(F)(F)F (mixture of isomers) | 4.6 | 0.24 | 19 | 6.6 | 0.7 | – | –
5 | COC(=O)CNC(=O)C(CC[C@H]1O[C@@H]2O[C@@]3(C)CC[C@H]4[C@H](C)CC[C@@H]([C@H]1C)[C@@]24OO3)N(CCC[C@H]1O[C@@H]2O[C@@]3(C)CC[C@H]4[C@H](C)CC[C@@H]([C@H]1C)[C@@]24OO3)C(=O)c1ccccc1 (mixture of isomers) | 5 | 0.45 | 11 | 0.79 | 6.3 | – | –
6 | COC(=O)CNC(=O)C(CC[C@H]1O[C@@H]2O[C@@]3(C)CC[C@H]4[C@H](C)CC[C@@H]([C@H]1C)[C@@]24OO3)N(CCC[C@H]1O[C@@H]2O[C@@]3(C)CC[C@H]4[C@H](C)CC[C@@H]([C@H]1C)[C@@]24OO3)C(=O)c1cccc(OC)c1OC (mixture of isomers) | 5.7 | 0.48 | 12 | 5.8 | 0.98 | – | –
7 | COC(=O)CNC(=O)C(CC[C@H]1O[C@@H]2O[C@@]3(C)CC[C@H]4[C@H](C)CC[C@@H]([C@H]1C)[C@@]24OO3)N(CCC[C@H]1O[C@@H]2O[C@@]3(C)CC[C@H]4[C@H](C)CC[C@@H]([C@H]1C)[C@@]24OO3)C(=O)c1ccc(N(C)C)cc1 (mixture of isomers) | 15 | 1.3 | 12 | 0.88 | 17 | – | –
8 | COC(=O)CNC(=O)C(CC[C@H]1O[C@@H]2O[C@@]3(C)CC[C@H]4[C@H](C)CC[C@@H]([C@H]1C)[C@@]24OO3)N(CCC[C@H]1O[C@@H]2O[C@@]3(C)CC[C@H]4[C@H](C)CC[C@@H]([C@H]1C)[C@@]24OO3)C(=O)c1cnccn1 (mixture of isomers) | 25 | 0.96 | 26 | 1.7 | 15 | – | –
9 | COC(=O)CNC(=O)C(CC[C@H]1O[C@@H]2O[C@@]3(C)CC[C@H]4[C@H](C)CC[C@@H]([C@H]1C)[C@@]24OO3)N(CCC[C@H]1O[C@@H]2O[C@@]3(C)CC[C@H]4[C@H](C)CC[C@@H]([C@H]1C)[C@@]24OO3)c1ccc([N+](=O)[O-])cc1 (mixture of isomers) | 47 | 39 | 1.2 | 0.096 | 490 | – | –
10 | C[C@H]1[C@H](OC(=O)CCC(=O)O)O[C@@H]2O[C@@]3(C)CC[C@H]4[C@H](C)CC[C@@H]1[C@@]24OO3 [ARTESUNATE] | 21 | 0.46 | 46 | 7.8 | 2.7 | – | –
